Assay results from BindingDB's records for doi:10.1016/j.bmcl.2019.04.027 (Gilead Sciences, 2019).

Tests used:
[1] = Inhibition of NS5A in HCV genotype 1a H77 infected in human HuH7 replicon cells assessed as reduction in viral replication after 3 days by luciferase reporter gene assay
[2] = Inhibition of NS5A in HCV genotype 1b Con1 infected in human HuH7 replicon cells assessed as reduction in viral replication after 3 days by luciferase reporter gene assay
[3] = Inhibition of NS5A in HCV genotype 2a JFH1 (L31) infected in human HuH7 replicon cells assessed as reduction in viral replication after 3 days by luciferase reporter gene assay
[4] = Inhibition of NS5A L31M mutant in HCV genotype 2a J6 (M31) infected in human HuH7 replicon cells assessed as reduction in viral replication after 3 days by luciferase reporter gene assay
[5] = Inhibition of NS5A L31M mutant in patient derived HCV genotype 2b MD2b-1 infected in human HuH7 replicon cells assessed as reduction in viral replication after 3 days by luciferase reporter gene assay
[6] = Inhibition of NS5A in HCV genotype 3a S52 infected in human HuH7 transient chimeric replicon cells assessed as reduction in viral replication after 3 days by luciferase reporter gene assay
[7] = Inhibition of NS5A in HCV genotype 4a ED43 infected in human HuH7 transient chimeric replicon cells assessed as reduction in viral replication after 3 days by luciferase reporter gene assay
[8] = Inhibition of NS5A L31M mutant in HCV genotype 2a JFH1 infected in human HuH7 replicon cells assessed as reduction in viral replication after 3 days by luciferase reporter gene assay
[9] = Inhibition of NS5A in HCV genotype 2a JFH1 infected in human HuH7 replicon cells assessed as reduction in viral replication after 3 days by luciferase reporter gene assay
[10] = Inhibition of NS5A in HCV genotype 2b MD2b-1 infected in human HuH7 replicon cells assessed as reduction in viral replication after 3 days by luciferase reporter gene assay

| SMILES | EC50 [1] [nM] | EC50 [2] [nM] | EC50 [3] [nM] | EC50 [4] [nM] | EC50 [5] [nM] | EC50 [6] [nM] | EC50 [7] [nM] | EC50 [8] [nM] | EC50 [9] [nM] | EC50 [10] [nM] |
| --- | --- | --- | --- | --- | --- | --- | --- | --- | --- | --- |
| COC(=O)N[C@H](C(=O)N1CCC[C@H]1c1ncc(-c2ccc3c4ccc(-c5cnc([C@@H]6CCCN6C(=O)[C@@H](NC(=O)OC)C(C)C)[nH]5)cc4c4nccnc4c3c2)[nH]1)C(C)C | 0.528 | 0.018 | 0.223 | – | – | – | – | – | – | – |
| COC(=O)NC(C(=O)N1CCC[C@H]1c1ncc(-c2cc3c4c(c2)OCc2cc(-c5cnc([C@@H]6CCCN6C(=O)[C@@H](NC(=O)OC)C(C)C)[nH]5)cc(c2-4)OC3)[nH]1)c1cccnc1 (stereo not given in full) | 0.75 | 0.58 | 0.038 | 1.8 | 1.21 | – | – | – | – | – |
| COC(=O)N[C@H](C(=O)N1CCC[C@H]1c1ncc(-c2ccc3c(c2)COc2c-3ccc3c2ccc2nc([C@@H]4CCCN4C(=O)[C@@H](NC(=O)OC)C(C)C)[nH]c23)[nH]1)C(C)C | 0.041 | 0.017 | 0.016 | 20.9 | 32.3 | 0.012 | 0.13 | – | – | – |
| COC(=O)N[C@H](C(=O)N1CCC[C@H]1c1ncc(-c2cc3c4c(c2)OCc2cc(-c5cnc([C@@H]6CCCN6C(=O)[C@@H](NC(=O)OC)[C@@H](C)OC)[nH]5)cc(c2-4)OC3)[nH]1)C(C)C | 0.087 | 0.079 | 0.01 | – | – | – | – | 3.67 | – | – |
| COC(=O)N[C@H](C(=O)N1CCC[C@H]1c1ncc(-c2cc3c4c(c2)OCc2cc(-c5cnc([C@@H]6CCCN6C(=O)[C@@H](NC(=O)OC)C6CCCC6)[nH]5)cc(c2-4)OC3)[nH]1)C1CCCC1 | 0.055 | 0.022 | 0.022 | – | – | – | – | > 44 | – | – |
| COC(=O)N[C@H](C(=O)N1CCC[C@H]1c1ncc(-c2ccc3c4ccc(-c5cnc([C@@H]6CCCN6C(=O)[C@@H](NC(=O)OC)C(C)C)[nH]5)cc4c4nc5ccccc5nc4c3c2)[nH]1)C(C)C | 5.99 | 0.01 | 1.47 | – | – | – | – | – | – | – |
| COC(=O)N[C@@H](C(=O)N1C[C@@H](C)C[C@H]1c1ncc(-c2cc3c4c(c2)OCc2cc(-c5cnc([C@@H]6C[C@H](C)CN6C(=O)[C@H](NC(=O)OC)c6ccccc6)[nH]5)cc(c2-4)OC3)[nH]1)c1ccccc1 | 0.031 | 0.02 | – | 0.058 | 0.026 | 0.006 | 0.013 | – | 0.005 | – |
| COC(=O)N[C@H](C(=O)N1CCC[C@H]1c1ncc(-c2cc3c4c(c2)COc2cc(-c5cnc([C@@H]6CCCN6C(=O)[C@@H](NC(=O)OC)C(C)C)[nH]5)cc(c2-4)OC3)[nH]1)C(C)C | 0.087 | 0.021 | 0.019 | – | – | – | – | 9.85 | – | – |
| COC(=O)N[C@H](C(=O)N1CCC[C@H]1c1ncc(-c2ccc3c(c2)COc2cc4c(ccc5nc([C@@H]6CCCN6C(=O)[C@@H](NC(=O)OC)C(C)C)[nH]c54)cc2-3)[nH]1)C(C)C | 0.016 | 0.017 | 0.004 | 1.16 | 0.162 | 0.004 | 0.008 | – | – | – |
| COC(=O)N[C@H](C(=O)N1CCC[C@H]1c1ncc(-c2cc3c4c(c2)COc2cc(-c5cnc([C@@H]6CCCN6C(=O)[C@@H](NC(=O)OC)C(C)C)[nH]5)cc(c2-4)CC3)[nH]1)C(C)C | 0.065 | 0.028 | 0.016 | 23.7 | – | – | – | – | – | – |
| COC(=O)N[C@H](C(=O)N1CCC[C@H]1c1ncc(-c2ccc3c4ccc(-c5cnc([C@@H]6CCCN6C(=O)[C@@H](NC(=O)OC)C(C)C)[nH]5)cc4c4ccccc4c3c2)[nH]1)C(C)C | 0.092 | 0.005 | 0.02 | – | – | – | – | 6.79 | – | – |
| COC(=O)N[C@H](C(=O)N1[C@@H](C)CC[C@H]1c1nc2ccc3cc4c(cc3c2[nH]1)OCc1cc(-c2cnc([C@@H]3C[C@H](C)CN3C(=O)[C@H](NC(=O)OC)c3ccccc3)[nH]2)ccc1-4)C(C)C | 0.008 | 0.005 | – | 0.053 | – | 0.02 | – | – | 0.004 | 0.015 |
| CC[C@H](C)[C@H](NC(=O)OC)C(=O)N1CCC[C@H]1c1ncc(-c2cc3c4c(c2)OCc2cc(-c5cnc([C@@H]6CCCN6C(=O)[C@@H](NC(=O)OC)[C@@H](C)CC)[nH]5)cc(c2-4)OC3)[nH]1 | 0.031 | 0.019 | 0.009 | – | 1.85 | – | – | 12.1 | – | – |
| COC(=O)N[C@H](C(=O)N1CCC[C@H]1c1ncc(-c2cc3c4c(c2)OCc2cc(-c5cnc([C@@H]6CCCN6C(=O)[C@@H](NC(=O)OC)C6CCOCC6)[nH]5)cc(c2-4)OC3)[nH]1)C1CCOCC1 | 0.38 | 0.8 | 0.074 | 0.33 | 0.6 | – | – | – | – | – |
| COC(=O)N[C@H](C(=O)N1CCC[C@H]1c1ncc(-c2cc3c4c(c2)CCc2cc(-c5cnc([C@@H]6CCCN6C(=O)[C@@H](NC(=O)OC)C(C)C)[nH]5)cc(c2-4)CC3)[nH]1)C(C)C | 0.156 | 0.021 | 0.131 | – | – | – | – | 13.3 | – | – |
| COC(=O)N[C@@H](C(=O)N1[C@@H](C)CC[C@H]1c1ncc(-c2cc3c4c(c2)OCc2cc(-c5cnc([C@@H]6CC[C@H](C)N6C(=O)[C@H](NC(=O)OC)c6ccccc6)[nH]5)cc(c2-4)OC3)[nH]1)c1ccccc1 | 0.15 | 0.02 | – | 1.84 | 0.094 | 0.004 | 0.015 | – | 0.008 | – |
| COC(=O)N[C@H](C(=O)N1CCC[C@H]1c1ncc(-c2ccc3c(c2)COc2cc4c(ccc5nc([C@@H]6CCCN6C(=O)[C@H](NC(=O)OC)c6ccccc6)[nH]c54)cc2-3)[nH]1)C(C)C | 0.022 | 0.021 | – | 0.134 | 0.012 | 0.005 | 0.008 | – | 0.004 | – |
| COC(=O)N[C@H](C(=O)N1CCC[C@H]1c1ncc(-c2cc3c4c(ccc5cc(-c6cnc([C@@H]7CCCN7C(=O)[C@@H](NC(=O)OC)C(C)C)[nH]6)cc(c54)OC3)c2)[nH]1)C(C)C | 0.063 | 0.022 | 0.014 | 19.7 | 10.2 | – | – | – | – | – |
| COC(=O)N[C@H](C(=O)N1CCC[C@H]1c1ncc(-c2cc3ccc4cc(-c5cnc([C@@H]6CCCN6C(=O)[C@@H](NC(=O)OC)C(C)C)[nH]5)cc5c(=O)c(c2)c3c45)[nH]1)C(C)C | 0.22 | 0.013 | 0.073 | – | – | – | – | – | – | – |
| COC(=O)N[C@H](C(=O)N1CCC[C@H]1c1ncc(-c2cc3c4c(c2)OCc2cc(-c5cnc([C@@H]6CCCN6C(=O)[C@@H](NC(=O)OC)C6CCC6)[nH]5)cc(c2-4)OC3)[nH]1)C1CCC1 | 0.053 | 0.02 | 0.02 | – | – | – | – | 31.3 | – | – |
| COC(=O)N[C@H](C(=O)N1CCC[C@H]1c1nc2ccc3cc4c(cc3c2[nH]1)OCc1cc(-c2cnc([C@@H]3CCCN3C(=O)[C@H](NC(=O)OC)c3ccccc3)[nH]2)ccc1-4)C(C)C | 0.035 | 0.033 | – | 0.073 | 0.016 | 0.006 | 0.011 | – | 0.006 | – |
| COC(=O)N[C@H](C(=O)N1CCC[C@H]1c1ncc(-c2cc3c4c(c2)OCc2cc(-c5cnc([C@@H]6CCCN6C(=O)[C@@H](NC(=O)OC)C6CCOCC6)[nH]5)cc(c2-4)OC3)[nH]1)C(C)C | 0.185 | 0.172 | 0.014 | 1.43 | – | – | – | 1.33 | – | – |
